Read-outs that look alike come from different tables or passages of the source.
Assays:
[1] = tested on: TGx‐28.65 biomarker genes; details: 5% ethanol S9, 4 hr + 3-4 hr recovery
CDKN1A = format: cell-based, human; details: 5% ethanol S9, 4 hr + 3-4 hr recovery
bacteria = details: ref NTP, 1993; cited from earlier work
TK6 cells [2] = details: for % Relative Survival: 5% ethanol S9, 4 hr + 20 hr recovery
[3] = 2012, cited from earlier work
GADD45A = format: cell-based, human; details: 5% ethanol S9, 4 hr + 3-4 hr recovery
ATF3 = format: cell-based, human; details: 5% ethanol S9, 4 hr + 3-4 hr recovery
TK6 cells [4] = details: for % MN: 5% ethanol S9, 4 hr + 20 hr recovery
[5] = B6C3F1 mouse bone marrow cells; ref NTP, 1993; cited from earlier work
TK6 cells [6] = details: 5% ethanol S9, 4 hr + 20 hr recovery
[7] = rats and mice; ref NTP, 1993; cited from earlier work
mammalian cells = details: Chinese hamster ovary cells; ref NTP, 1993; cited from earlier work

In the case of c1ccoc1 [Furan], the “Dendogram TGx‐28.65” value ([1]; 2 mM) is reported as “+”, the “NSC TGx‐28.65” value ([1]; 2 mM) is reported as “+” and the “PCA TGx‐28.65” value ([1]; 2 mM) is reported as “+”. For the same compound, the “Dendogram TGx‐28.65” value ([1]; 3 mM) was “+”, the “NSC TGx‐28.65” value ([1]; 3 mM) was “+” and the “PCA TGx‐28.65” value ([1]; 3 mM) was “+”. For the same compound, the “Dendogram TGx‐28.65” value ([1]; 5 mM) was “+”, the “NSC TGx‐28.65” value ([1]; 5 mM) was “+” and the “PCA TGx‐28.65” value ([1]; 5 mM) was “+”. The “CDKN1A fold change vs vehicle control (+S9)” value (“CDKN1A fold change” for short) (CDKN1A; 2 mM) was 3.2 fold change, the “CDKN1A fold change” value (CDKN1A; 3 mM) was 5.3 fold change and the “CDKN1A fold change” value (CDKN1A; 5 mM) was 9.8 fold change. The Ames test (bacteria) was “negative”, the “% Relative Survival” value (TK6 cells [2]; 2 mM) was 80.06% and the “% Relative Survival” value (TK6 cells [2]; 3 mM) was 64.52%. The “% Relative Survival” value (TK6 cells [2]; 5 mM) was 48.45%, the “effect on RS, range finder” value (TK6 cells [2]; 2% Aroclor‐induced S9, data not shown) was “did not cause a decline in RS” and the “liver DNA strand breaks, comet assay” value ([3]; Big Blue rats, ref McDaniel et al.) was “DNA damage at high doses”. For the same compound, the “DNA strand breaks by the comet assay” value ([3]; F344 rats at cancer‐causing doses, ref Ding et al.) was “near‐linear dose‐dependent increase in DNA strand breaks”, the “GADD45A fold change vs vehicle control (+S9)” value (“GADD45A fold change” for short) (GADD45A; 2 mM) was 1.4 fold change and the “GADD45A fold change” value (GADD45A; 3 mM) was 1.4 fold change. The “GADD45A fold change” value (GADD45A; 5 mM) was 2.4 fold change, the “ATF3 fold change vs vehicle control (+S9)” value (from here on “ATF3 fold change”) (ATF3; 2 mM) was 2.3 fold change and the “ATF3 fold change” value (ATF3; 3 mM) was 3.1 fold change. The “ATF3 fold change” value (ATF3; 5 mM) was 5.4 fold change, the “% MN” value (TK6 cells [4]; 2 mM) was 1.57% and the “% MN” value (TK6 cells [4]; 3 mM) was 1.77%. The “% MN” value (TK6 cells [4]; 5 mM) was 2.78%, the “clastogenicity (analysis of MN)” value (TK6 cells [4]; 5% ethanol‐induced S9) was “clastogenic at high concentrations” and the “statistically significant % MN increase relative to controls” value (TK6 cells [4]; for at least one concentration, definitive study) was “over twofold”. For the same compound, the chromosomal aberrations [5] was “causes chromosomal aberrations”, the “% Apoptotic cells” value (TK6 cells [6]; 2 mM) was 7.07% and the “% Apoptotic cells” value (TK6 cells [6]; 3 mM) was 8.40%. For the same compound, the “% Apoptotic cells” value (TK6 cells [6]; 5 mM) was 15.26%, the carcinogenicity [7] was “causes liver cancer” and the chromosomal aberrations (mammalian cells) was “causes chromosomal aberrations”.

From paper PMC5021161 (Environmental and Molecular Mutagenesis, 2016)
